Data from PubChem BioAssay (NCI).
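GI50: concentration for 50% inhibition of growth. Definition used: TGI = concentration required for complete inhibition of growth.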

Legend:
Assay in all cases: NCI anticancer screen, dose series, 384-well format; in the data active means GI50 below about 0.43 µM; inactive means the rest
[1] = test system: SK-MEL-28 melanoma
[2] = test system: HT29 colon
[3] = test system: BT-549 breast
[4] = test system: U251 glioblastoma
[5] = test system: NCI-H23 lung
[6] = test system: NCI-H226 lung
[7] = test system: ACHN renal
[8] = test system: SF-295 CNS
[9] = test system: KM12 colon
[10] = test system: 786-0 renal
[11] = test system: COLO 205 colon
[12] = test system: A549 NSCLC
[13] = test system: MDA-MB-468 breast
[14] = test system: T-47D breast
[15] = test system: SK-OV-3 ovarian
[16] = test system: MDA-MB-435 melanoma
[17] = test system: HCT-15 colon
[18] = test system: MCF7 breast
[19] = test system: CAKI-1 renal
[20] = test system: SF-539 CNS
[21] = test system: A498 renal
[22] = test system: SNB-19 CNS
[23] = test system: LOX IMVI melanoma
[24] = test system: MOLT-4 leukemia
[25] = test system: DU-145 prostate
[26] = test system: NCI-H322M lung
[27] = test system: UACC-257 melanoma
[28] = test system: OVCAR-5 ovarian
[29] = test system: HOP-62 NSCLC
[30] = test system: OVCAR-3 ovarian
[31] = test system: EKVX NSCLC
[32] = test system: HS 578T breast
[33] = test system: M14 melanoma
[34] = test system: PC-3 prostate
[35] = test system: SNB-75 CNS
[36] = test system: HCC-2998 colon
[37] = test system: NCI-H460 NSCLC
[38] = test system: RPMI-8226 leukemia
[39] = test system: MALME-3M melanoma
[40] = test system: SR leukemia
[41] = test system: TK-10 renal
[42] = test system: SF-268 CNS
[43] = test system: UO-31 renal
[44] = test system: SK-MEL-5 melanoma
[45] = test system: HCT-116 colon
[46] = test system: HOP-92 NSCLC
[47] = test system: RXF 393 renal
[48] = test system: NCI-H522 lung
[49] = test system: IGROV1 ovarian
[50] = test system: HL-60(TB) leukemia
[51] = test system: NCI/ADR-RES ovarian
[52] = test system: OVCAR-4 ovarian
[53] = test system: SN12C renal
[54] = test system: UACC-62 melanoma

CO[C@H]1C(=O)[C@]2(C)[C@@H](OC)C[C@H]3OC[C@@]3(OC(C)=O)[C@H]2[C@H](OC(=O)c2ccccc2)[C@]2(O)C[C@H](OC(=O)[C@H](O)[C@@H](NC(=O)OC(C)(C)C)c3ccccc3)C(C)=C1C2(C)C
44200 nM: TGI [21]
39800 nM: TGI [31]
54.8 nM: TGI [51]
31300 nM: TGI [52]
22600 nM: TGI [23]
> 69000 nM: TGI [19]
> 49200 nM: TGI [39]
> 61500 nM: TGI [18]
> 80500 nM: TGI [34]
89000 nM: TGI [14]
21200 nM: TGI [4]
> 100000 nM: TGI [1] | TGI [5] | TGI [7] | TGI [9] | TGI [15] | TGI [17] | TGI [22] | TGI [26] | TGI [27] | TGI [28] | TGI [29] | TGI [33] | TGI [41] | TGI [43] | TGI [45] | TGI [46] | TGI [49] | TGI [53]
inactive: GI50 [1] > 100000 nM | GI50 [27] 32700 nM | GI50 [46] 22200 nM
> 78800 nM: TGI [10]
< 10 nM: TGI [2] | TGI [3] | TGI [11] | TGI [13] | TGI [16] | TGI [24] | TGI [25] | TGI [32] | TGI [36] | TGI [37] | TGI [38] | TGI [40] | TGI [44] | TGI [47] | TGI [48] | TGI [50]
> 62600 nM: TGI [42]
active: GI50 [2] < 10 nM | GI50 [3] < 10 nM | GI50 [4] < 10 nM | GI50 [5] < 10 nM | GI50 [6] < 10 nM | GI50 [8] < 10 nM | GI50 [9] < 10 nM | GI50 [10] < 10 nM | GI50 [11] < 10 nM | GI50 [12] < 10 nM | GI50 [13] < 10 nM | GI50 [14] < 10 nM | GI50 [15] < 10 nM | GI50 [16] < 10 nM | GI50 [17] < 10 nM | GI50 [18] < 10 nM | GI50 [19] < 13.1 nM | GI50 [20] < 10 nM | GI50 [21] < 10 nM | GI50 [22] < 10 nM | GI50 [23] < 40.7 nM | GI50 [24] < 10 nM | GI50 [25] < 10 nM | GI50 [28] < 10 nM | GI50 [29] < 10 nM | GI50 [30] < 10 nM | GI50 [31] < 10 nM | GI50 [32] < 10 nM | GI50 [33] < 10 nM | GI50 [34] < 10 nM | GI50 [35] < 10 nM | GI50 [36] < 10 nM | GI50 [37] < 10 nM | GI50 [38] < 10 nM | GI50 [40] < 10 nM | GI50 [41] < 10 nM | GI50 [43] < 12.8 nM | GI50 [44] < 10 nM | GI50 [45] < 10 nM | GI50 [47] < 10 nM | GI50 [48] < 10 nM | GI50 [49] < 10 nM | GI50 [50] < 10 nM | GI50 [51] 18.9 nM | GI50 [52] < 10 nM | GI50 [53] < 10 nM | GI50 [54] < 10 nM
> 49700 nM: TGI [54]
18500 nM: TGI [6]
> 55100 nM: TGI [12]
